Measurements published in patent US12342823B2, “Active compound combinations having insecticidal/acaricidal properties” (Bayer Aktiengesellschaft, priority 2018, dated 2025).

Tested on: green peach aphid (Myzus persicae)
Assay: Myzus persicae - spray test on cabbage leaves
Assay type: in vivo
Conditions: mortality, 1600 ppm, spray on infested cabbage leaves
Protocol: The expected efficacy of a given combination of two compounds is calculated as follows (see Colby, S.R., “Calculating Synergistic and antagonistic Responses of Herbicide Combinations”, Weeds 15, pp. 20-22, 1967):
If • X is the efficacy expressed in % mortality of the untreated control for test compound A at a concentration of m ppm or m g/ha, • Y is the efficacy expressed in % mortality of the untreated control for test compound B at a concentration of n ppm or n g/ha, • E is the efficacy expressed in % mortality of the untreated control using the mixture of A and B at m and n ppm respectively m and n g/ha, • then is
If the observed insecticidal efficacy of the combination is higher than the one calculated as “E”, then the combination of the two compounds is more than additive, i.e., there is a synergistic effect.
Myzus persicae—Spray Test
• Solvent: 7 parts by weight of dimethylformamide • Emulsifier: alkylaryl polyglycol ether
To produce a suitable preparation of active compound, 1 part by weight of active compound is mixed with the stated amount of solvent and is diluted with water, containing an emulsifier concentration of 1000 ppm, to the desired concentration. […]
After the specified period of time mortality in % is determined. […] The mortality values determined thus are recalculated using the Colby-formula (see sheet 1).

**Q.** Which “Efficacy in % after 6 days” value does the source give for `C=C(C)[C@H]1CC=C(C)CC1` [(R)-(+)-limonene 97%, (R)-(+)-limonene] here?
**A.** 0%
